Experiment [1] relates to ovarian cancer cell A2780. The experiment in a line: Cellular antiproliferative assay (MTT, 5 days), A2780. In kind it is cell-based, human. The settings on record: Homo sapiens, 120 h, A2780 cells, 5 days incubation. The method, then:
(§1) Human breast cancer cell MCF-7, ovarian cancer cell A2780, human mantle cell lymphoma cell JEKO-1. DMEM medium (Bio-Channel), DMSO (dimethyl sulfoxide), MTT (thiazolyl blue), 0.25% EDTA-Tripsin (tryptic digest), 1×PBS (phosphate buffer, PH7.2), 96-well plate (Corning), fetal bovine serum (FBS), 10,000 U/mL penicillin-G/streptomycin, high-speed cryo-centrifuge (EPPENDORF 5810R), enzyme-linked immunoassay (Tecan Spark).
(§2) • A) Tumor cells were cultured in DMEM (high sugar with 10% FBS and 100 U/mL penicillin-G/streptomycin) at 37° C., 5% CO2 and saturated humidity until 80-90% dense. • B) Removed the culture medium from 10 cm Petri dishes; • C) Rinsed the cells once with 10 ml 1×PBS; • D) Added 4 ml 0.25% EDTA-Tripsin into 37° C., 5% CO2 incubator for trypsin digestion for 5 minutes, transferred to 15 ml centrifuge tube, centrifuged at 200 g for 5 minutes, discarded the supernatant to get cell precipitate; • E) Resuspended with 4 ml DMEM medium, counted and adjust to 50,000 cells/ml. • F) Added cell suspension to 96-well plate with 100 μL per well volume and incubated overnight at 37° C., 5% CO2 incubator.
(§3) • A) Preparation of gradient dilution solution of the tested compound: the test compound was configured into 1 mM reservoir solution.
(§4) • A) Taking the cell culture plate and adding 10 μL of 5 mg/ml MTT in the biosafety cabinet; • B) Putting the cell culture plate back into the incubator and continued incubation for 3 hours; • C) Taking the cell culture plate and removing the culture medium, adding 100 μL isopropanol (containing 0.4 mM HCl, 0.1% NP-40), and shaking the bed at room temperature for 30 min; and • D) Determining the absorbance value by selecting 570 nm on a TECAN enzyme-linked immunoassay detector.
(§5) The % Cell Viability was calculated using the following formula:
(§6) [formula] • Lum_HC: 0.1% DMSO control cell reading • Lum_Sample: cell readings with compound added • Lum_LC: Blank medium reading

Experiment [2] relates to Human breast cancer cell MCF-7. The experiment is described as follows: Cellular antiproliferative assay (MTT, 5 days), MCF-7. In kind it is cell-based. Conditions: Homo sapiens, MCF7, 120 h, MCF-7 cells, 5 days incubation. As for the experimental part:
as §1, §2, §3, §4, §5, §6

Experiment [3] relates to human mantle cell lymphoma cell JEKO-1. The experiment in a line: Cellular antiproliferative assay (MTT, 5 days), JEKO-1. The settings on record: Homo sapiens, 120 h, JEKO-1 cells, 5 days incubation. In kind it is cell-based. As for the experimental part: as §1, §2, §3, §4, §5, §6

For 25 molecules, IC50 results are on record in patent US20260078114A1, “COMPOUND USED AS INHIBITOR OF CDK4 KINASE AND USE THEREOF” (TYK MEDICINES, INC., priority 2022, published 2026).

Broadly, the IC50 is the point on the concentration scale where inhibition reaches its midpoint.

Take `CC1CCN(C)c2nc3c(F)cc(-c4nc(N[C@@H]5CCOC[C@H]5O)ncc4Cl)cc3n21` (mixture of isomers) [TB-44, (3S,4R)-4-((5-chloro-4-(9-fluoro-1,4-dimethyl-1,2,3,4-tetrahydrobenzo[4,5]imidazo[1,2-a]pyrimidin-7-yl)pyrimidin-2-yl)amino)tetrahydro-2H-pyran-3-ol]: the IC50 in experiment [1], in experiment [2] and in experiment [3] was at most 0.5 µM in each case.

For `CC(C)n1c(N2CCOC2=O)nc2c(F)cc(-c3nc(N[C@@H]4CCOC[C@H]4O)ncc3Cl)cc21` [TA-55], the IC50 in experiment [1], in experiment [2] and in experiment [3] was at most 0.5 µM throughout.

For `CC(C)n1c(N(C)C)nc2c(F)cc(-c3nc(N[C@@H]4CCOC[C@H]4O)ncc3Cl)cc21` [TB-1], the IC50 in experiment [1], in experiment [2] and in experiment [3] was at most 0.5 µM each time.

As to `CC(C)n1c(N(C)C)nc2c(F)cc(-c3nc(NC4CCOCC4)ncc3Cl)cc21` [TB-2, 6-(5-chloro-2-((tetrahydro-2H-pyran-4-yl)amino)pyrimidin-4-yl)-4-fluoro-1-isopropyl-N,N-dimethyl-1H-benzo[d]imidazol-2-amine], the half-inhibitory concentration (IC50) in experiment [1], in experiment [2] and in experiment [3] was at most 0.5 µM throughout.

Regarding `CC(C)n1c(N(C)C)nc2c(F)cc(-c3nc(NC4CCN(S(C)(=O)=O)CC4)ncc3Cl)cc21` [TB-3, 6-(5-chloro-2-((1-(methylsulfonyl)piperidin-4-yl)amino)pyrimidin-4-yl)-4-fluoro-1-isopropyl-N,N-dimethyl-1H-benzo[d]imidazol-2-amine], the IC50 in experiment [1], in experiment [2] and in experiment [3] was at most 0.5 µM throughout.

Turning to `CC(C)n1c(N(C)C)nc2c(F)cc(-c3nc(N[C@H]4CC[C@H](NS(C)(=O)=O)CC4)ncc3Cl)cc21` [TB-5], the IC50 in experiment [1], in experiment [2] and in experiment [3] was at most 0.5 µM in each case.

In the case of `CC(C)n1c(N2CC[C@H](O)C2)nc2c(F)cc(-c3nc(N[C@@H]4CCOC[C@H]4O)ncc3Cl)cc21` [TB-6, (S)-1-(6-(5-chloro-2-(((3S,4R)-3-hydroxytetrahydro-2H-pyran-4-yl)amino)pyrimidin-4-yl)-4-fluoro-1-isopropyl-1H-benzo[d]imidazol-2-yl)pyrrolidin-3-ol], the half-maximal inhibitory concentration (IC50) was at most 0.5 µM in experiment [1], 0.5 to 2 µM in experiment [2] and at most 0.5 µM in experiment [3].

For the molecule `CC(C)n1c(N2CC[C@@H](O)C2)nc2c(F)cc(-c3nc(N[C@@H]4CCOC[C@H]4O)ncc3Cl)cc21` [TB-7, (R)-1-(6-(5-chloro-2-(((3S,4R)-3-hydroxytetrahydro-2H-pyran-4-yl)amino)pyrimidin-4-yl)-4-fluoro-1-isopropyl-1H-benzo[d]imidazol-2-yl)pyrrolidin-3-ol], the IC50 in experiment [1], in experiment [2] and in experiment [3] was at most 0.5 µM throughout.

For the molecule `COC(=O)N(C)c1nc2c(F)cc(-c3nc(N[C@@H]4CCOC[C@H]4O)ncc3Cl)cc2n1C(C)C` [TB-8, methyl (6-(5-chloro-2-(((3S,4R)-3-hydroxytetrahydro-2H-pyran-4-yl)amino)pyrimidin-4-yl)-4-fluoro-1-isopropyl-1H-benzo[d]imidazol-2-yl)(methyl)carbamate], the IC50 in experiment [1] was at most 0.5 µM; in experiment [2], 0.5 to 2 µM; in experiment [3] it was at most 0.5 µM.

For the molecule `CC(C)n1c(N(C)CCO)nc2c(F)cc(-c3nc(N[C@@H]4CCOC[C@H]4O)ncc3Cl)cc21` [TB-9, (3S,4R)-4-((5-chloro-4-(4-fluoro-2-((2-hydroxyethyl)(methyl)amino)-1-isopropyl-1H-benzo[d]imidazol-6-yl)pyrimidin-2-yl)amino)tetrahydro-2H-pyran-3-ol], the IC50 in experiment [1] was at most 0.5 µM; in experiment [2] it was 0.5 to 2 µM; in experiment [3], at most 0.5 µM.

Consider `CC(C)n1c(N2CCCC2)nc2c(F)cc(-c3nc(N[C@@H]4CCOC[C@H]4O)ncc3Cl)cc21` [TB-11, (3S,4R)-4-((5-chloro-4-(4-fluoro-1-isopropyl-2-(pyrrolidin-1-yl)-1H-benzo[d]imidazol-6-yl)pyrimidin-2-yl)amino)tetrahydro-2H-pyran-3-ol], for which the IC50 in experiment [1], in experiment [2] and in experiment [3] was at most 0.5 µM throughout.

With `CC(C)n1c(N(C)C)nc2c(F)cc(-c3nc(N[C@@H]4CCN(S(C)(=O)=O)C[C@H]4O)ncc3Cl)cc21` [TB-13, (3R,4R)-4-((5-chloro-4-(2-(dimethylamino)-4-fluoro-1-isopropyl-1H-benzo[d]imidazol-6-yl)pyrimidin-2-yl)amino)-1-(methylsulfonyl)piperidin-3-ol], the IC50 in experiment [1], in experiment [2] and in experiment [3] was at most 0.5 µM throughout.

With `CC(C)n1c(N2CC(O)C2)nc2c(F)cc(-c3nc(N[C@@H]4CCOC[C@H]4O)ncc3Cl)cc21` [TB-14, 1-(6-(5-chloro-2-(((38,4R)-3-hydroxytetrahydro-2H-pyran-4-yl)amino)pyrimidin-4-yl)-4-fluoro-1-isopropyl-1H-benzo[d]imidazol-2-yl)azetidin-3-ol], the IC50 in experiment [1], in experiment [2] and in experiment [3] was at most 0.5 µM throughout.

As for `CCN1CCN(Cc2ccc(Nc3ncc(Cl)c(-c4cc(F)c5nc(N(C)C)n(C(C)C)c5c4)n3)nc2)CC1` [TB-16], the IC50 in experiment [1], in experiment [2] and in experiment [3] was at most 0.5 µM throughout.

For `COc1cc(N2CCNCC2)ccc1Nc1ncc(Cl)c(-c2cc(F)c3nc(N(C)C)n(C(C)C)c3c2)n1` [TB-17, 6-(5-chloro-2-((2-methoxy-4-(piperazin-1-yl)phenyl)amino)pyrimidin-4-yl)-4-fluoro-1-isopropyl-N,N-dimethyl-1H-benzo[d]imidazol-2-amine], the IC50 in experiment [1], in experiment [2] and in experiment [3] was 0.5 to 2 µM in each case.

Turning to `CC(C)n1c(N(C)C)nc2c(F)cc(-c3nc(Nc4ccc(N5CCNCC5)cn4)ncc3Cl)cc21` [TB-18, 6-(5-chloro-2-((5-(piperazin-1-yl)pyridin-2-yl)amino)pyrimidin-4-yl)-4-fluoro-1-isopropyl-N,N-dimethyl-1H-benzo[d]imidazol-2-amine], the half-maximal inhibitory concentration (IC50) in experiment [1], in experiment [2] and in experiment [3] was at most 0.5 µM throughout.

`CC(C)n1c(N2CCCOC2=O)nc2c(F)cc(-c3nc(N[C@@H]4CCOC[C@H]4O)ncc3Cl)cc21` [TB-25]: the half-inhibitory concentration (IC50) in experiment [1] was at most 0.5 µM; in experiment [2] it was 0.5 to 2 µM; in experiment [3], at most 0.5 µM.

On to `CC(C)n1c(N2CCOC2=O)nc2c(F)cc(-c3nc(NC4CCN(S(C)(=O)=O)CC4)ncc3Cl)cc21` [TB-26], for which the IC50 in experiment [1], in experiment [2] and in experiment [3] was at most 0.5 µM throughout.

`CC(C)n1c(N2CCOC2=O)nc2c(F)cc(-c3nc(NC4CCN(S(C)(=O)=O)CC4)ncc3F)cc21` [TB-28]: the 50% inhibitory concentration (IC50) in experiment [1], in experiment [2] and in experiment [3] was at most 0.5 µM throughout.

With `CC(C)n1c(N2CCOC2=O)nc2c(F)cc(-c3nc(NC4CCN(S(=O)(=O)C(C)C)CC4)ncc3Cl)cc21` [TB-32], the 50% inhibitory concentration (IC50) in experiment [1], in experiment [2] and in experiment [3] was at most 0.5 µM in each case.

As for `CC(C)n1c(N2CCOC2=O)nc2c(F)cc(-c3nc(NC4CCN(S(=O)(=O)C5CC5)CC4)ncc3Cl)cc21` [TB-33], the IC50 in experiment [1], in experiment [2] and in experiment [3] was at most 0.5 µM throughout.

As to `CC(C)n1c(N2CCOC2=O)nc2c(F)cc(-c3nc(NC4CCN(S(C)(=O)=O)CC4(F)F)ncc3Cl)cc21` (stereo not drawn) [TB-35], the IC50 in experiment [1], in experiment [2] and in experiment [3] was at most 0.5 µM each time.

Regarding `CC(C)n1c(N2CCOC2=O)nc2c(F)cc(-c3nc(Nc4ccc(S(=O)(=O)NCCN(C)C)cc4)ncc3Cl)cc21` [TB-38, 4-((5-chloro-4-(4-fluoro-1-isopropyl-2-(2-oxooxazolidin-3-yl)-1H-benzo[d]imidazol-6-yl)pyrimidin-2-yl)amino)-N-(2-(dimethylamino)ethyl)benzenesulfonamide], the concentration for half-maximal inhibition (IC50) in experiment [1], in experiment [2] and in experiment [3] was at most 0.5 µM throughout.

As to `CN1CCCn2c1nc1c(F)cc(-c3nc(N[C@@H]4CCOC[C@H]4O)ncc3Cl)cc12` [TB-40], the IC50 in experiment [1], in experiment [2] and in experiment [3] was at most 0.5 µM in each case.

With `CN1CCCn2c1nc1c(F)cc(-c3nc(N[C@@H]4CCOC[C@H]4O)ncc3F)cc12` [TB-42, (3S,4R)-4-((5-fluoro-4-(9-fluoro-1-methyl-1,2,3,4-tetrahydrobenzo[4,5]imidazo[1,2-a]pyrimidin-7-yl)pyrimidin-2-yl)amino)tetrahydro-2H-pyran-3-ol], the IC50 in experiment [1], in experiment [2] and in experiment [3] was at most 0.5 µM throughout.
